Legend:
TGase [1] = experiment: In situ TGase activity in kidney cryostat sections of treated SNx rats; format: in vivo, rat; conditions: SNx rats treated for 28 days, biotin cadaverine incorporation
From the text: (§1) Male Wistar rat of approximately 300 g weight was anaesthetised using 5% halothane and maintained at 3% for the duration of the surgical procedure. The rat was subjected to a ⅚th subtotal nephrectomy (SNx) by ligation of the left renal artery and vein followed by complete nephrectomy of the left kidney. The right kidney had both the upper and lower poles ligated followed by excision of both poles. A 9-cm cannula (0.32 mm bore) was sealed on one end and fenestrated between 3 and 12 mm from the sealed end. This was then inserted through the parenchyma (cut to cut/pole to pole) of the kidney so that the blunt end was just visible through one of the cut ends. This was then sealed in position using tissue glue on both ends of the kidney such that the fenestrated area was within the remnant kidney. The cannula was passed through the muscle wall, which was then stitched using reabsorbable sutures. […]
Rat kidneys treated in vivo with TGase inhibitors were snap-frozen in liquid nitrogen and 14 μm sections were cut using a cryostat and allowed to air-dry. […] Slides were viewed on a Leica TCSNT confocal microscope equipped with excitation and emission filters for Cy5, and emitted fluorescence was quantified with the software supplied by the manufacturer. […]

TGase [2] = experiment: 14C-putrescine incorporation into N,N'-dimethyl casein in kidney homogenates of treated SNx rats; format: in vivo, rat; conditions: day 84
From the text: as §1, with “sutures. The cannula was then attached to the regulator of a 2 ml osmotic minipump (Azlet osmotic minipump (2 ml4), Charles Rivers, UK) that was loaded (primed for 15 hrs at RT) with either PBS (SNx) or TGase inhibitor 281 or 283 (SNx+281 and SNx+283, respectively) at a concentration of 50 mM (delivery 1.5 μl per hour). The pump was then positioned subcutaneously on the right upper flank of the animal and the skin sutured.” for “sutures.”

SNx rats = experiment: Renal function in subtotal nephrectomy (SNx) rats with inhibitor instilled into the kidney by osmotic minipump; format: in vivo, rat; conditions: 90 day SNx rats, inhibitor 50 mM instilled into kidney, 5 animals per group
From the text: Male Wistar rat of approximately 300 g weight was anaesthetised using 5% halothane and maintained at 3% for the duration of the surgical procedure. The rat was subjected to a ⅚th subtotal nephrectomy (SNx) by ligation of the left renal artery and vein followed by complete nephrectomy of the left kidney. The right kidney had both the upper and lower poles ligated followed by excision of both poles. A 9-cm cannula (0.32 mm bore) was sealed on one end and fenestrated between 3 and 12 mm from the sealed end. This was then inserted through the parenchyma (cut to cut/pole to pole) of the kidney so that the blunt end was just visible through one of the cut ends. This was then sealed in position using tissue glue on both ends of the kidney such that the fenestrated area was within the remnant kidney. The cannula was passed through the muscle wall, which was then stitched using reabsorbable sutures. The cannula was then attached to the regulator of a 2 ml osmotic minipump (Azlet osmotic minipump (2 ml4), Charles Rivers, UK) that was loaded (primed for 15 hrs at RT) with either PBS (SNx) or TGase inhibitor 281 or 283 (SNx+281 and SNx+283, respectively) at a concentration of 50 mM (delivery 1.5 μl per hour). The pump was then positioned subcutaneously on the right upper flank of the animal and the skin sutured. The animal was then switched onto oxygen and allowed to partially regain consciousness before being returned to the cage. The pump was changed every 28 days under halothane anaesthesia. […] The animal was then anaesthetised, the remnant kidney recovered and a terminal blood sample collected.
Proteinuria, creatinine clearance, serum clearance, urine creatinine and urine urea were carried out by standard clinical chemistry techniques (Johnson et al., 1997, J. Clin. Invest. 99:2950-2960). Creatinine and urea were measured by the standard autoanalyser technique and proteinura by the Biuret method (Johnson et al., supra). Data represent mean values ±SE, taken from 5 animals per group.

tissue transglutaminase = target: T1, tissue transglutaminase (UniProt P08587); experiment: TGase-mediated crosslinking of fibronectin, SDS-PAGE; format: biochemical; conditions: compound 250 μM, TGase and fibronectin 50 μg/ml each, 37° C. for 2 hr
T1 sequence (P08587 1-690): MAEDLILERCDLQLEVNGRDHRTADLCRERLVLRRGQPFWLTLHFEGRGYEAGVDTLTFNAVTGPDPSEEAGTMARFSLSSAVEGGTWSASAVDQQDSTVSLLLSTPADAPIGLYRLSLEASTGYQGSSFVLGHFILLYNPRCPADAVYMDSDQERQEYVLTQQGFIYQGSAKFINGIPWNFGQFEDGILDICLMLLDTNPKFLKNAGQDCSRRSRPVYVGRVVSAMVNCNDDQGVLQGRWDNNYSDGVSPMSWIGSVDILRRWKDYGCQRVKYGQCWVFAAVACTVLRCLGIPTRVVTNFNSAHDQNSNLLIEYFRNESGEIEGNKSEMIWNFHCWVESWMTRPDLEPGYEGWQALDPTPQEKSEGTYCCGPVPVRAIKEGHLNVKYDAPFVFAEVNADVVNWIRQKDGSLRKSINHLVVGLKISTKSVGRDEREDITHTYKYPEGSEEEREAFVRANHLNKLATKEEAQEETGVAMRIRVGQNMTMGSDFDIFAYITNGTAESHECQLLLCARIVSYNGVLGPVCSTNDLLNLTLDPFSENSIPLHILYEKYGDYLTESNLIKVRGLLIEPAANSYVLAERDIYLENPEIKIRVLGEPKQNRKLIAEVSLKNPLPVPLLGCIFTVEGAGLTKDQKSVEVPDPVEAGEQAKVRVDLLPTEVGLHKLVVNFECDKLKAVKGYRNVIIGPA
Protocol: • 1. Preactivate TGase in 3 mM DTT (where applicable) on ice for 1 hr. • 2. Crosslink TGase with fibronectin in 40 mM Tris/100 mM NaCl at 50 μg/ml final concentration each, according to Table 1 below. Include non-activated Tgase/preactivated Tgase controls in the presence and absence of the inhibitors to investigate potential homodimer formation. • 3. Incubate at 37° C. for 2 hr to allow crosslink formation to take place. • 4. Solubilise crosslink in 2× Laemmli buffer. Vortex and spin down insoluble material. • 5. Load 20 μg of total protein (Tgase+Fn) on a 7% acrylamide SDS PAGE gel. Run gel at […] until dye escapes from the bottom of the gel. • 6. Stain with coomassie brilliant blue for 1 hr at RT. • 7. De-stain in 30% methanol/10% acetic acid at RT.
SDS-PAGE data showing tTGase-mediated crosslinking of fibronectin following treatment with exemplary compounds of the invention is shown in FIG. 22.

Row | Structure (SMILES) | In situ TGase activity in kidney cryostat sections (FIG. 25a) (TGase [1]) | TGase activity by 14C-putrescine incorporation in kidney homogenates (FIG. 25b) (TGase [2]) | Proteinuria, Mean (SNx rats) [mg/24 h] | Serum creatinine, Mean (SNx rats) [µM] | Serum urea, Mean (SNx rats) [mM/L] | Urine creatinine, Mean (SNx rats) [µM] | Urine urea, Mean (SNx rats) [mM/L] | tTGase-mediated crosslinking of fibronectin (FIG. 22) (tissue transglutaminase)
1 | CC(=O)CSc1n(C)cc[n+]1C.[Cl-] [Compound 283, 1,3-dimethyl-2-(2-oxopropylsulfanyl)-3H-1,3-diazol-1-ium-chloride, reference compound] | inhibition | inhibition | 835 | 114 | 16.3 | 3140 | 272 | 
2 | C[S+](C)CC(=O)CCC(NC(=O)C(Cc1ccccc1)NC(=O)OCc1ccccc1)C(=O)O [Compound 281, N-Benzyloxycarbonyl-L-phenylalanyl-6-dimethylsulfonium-5-oxo-L-norleucine] | inhibition | inhibition | 503 | 208 | 22.32 | 4000 | 372 | inhibition
3 | C[S+](C)CC(=O)CCC(NC(=O)C(CCC(N)=O)NC(=O)OCc1ccccc1)C(=O)O [Compound 285, N-Benzyloxycarbonyl-L-glutaminyl-6-dimethylsulfonium-5-oxo-L-norleucine] |  |  |  |  |  |  |  | inhibition

— US7723307B2, “Amino acid derivatives and pharmaceutical uses thereof” (Aston University, priority 2003, dated 2010)
